# Patent publication US20080089860A1, “Therapeutic compositions and methods useful in treating cancer” (priority 2006, published 2008)
# Values joined by “and” are separate entries in the source; they are usually repeats but may differ in a detail not shown here. Identical values can stand only once.
# Key:
# [1] = tested on: U937 cells; experiment: U937 differentiation (NBT reduction); format: cell-based, human; details: day 6
# Description: (§1) Differentiation of AML cell lines was assessed by their ability to produce superoxide as measured by reduction of NBT to formazan and by analysis of expression of CD11b surface marker by flow cytometry. For NBT reduction, each cell suspension was mixed with an equal volume of solution containing 1 mg/ml of NBT (Sigma) and 2.5 µg/ml of TPA for 30 minutes at 37° C. After incubation, cells containing the purple formazan deposits and cells devoid of NBT-reducing activity (white cells) in each sample were determined by counting 200 cells under microscope. Data is expressed as a percentage based on the following ratio: purple cells/purple+white cells. For analysis of cell surface antigens, cells were exposed to phycoerythrin (PE)-conjugated murine anti-human CD11b (DAKO Corp., Carpinteria, Calif.). Analysis of fluorescence was performed on a FACScan flow cytometer (Beckton Dickinson, Mountain View, Calif.).
# [2] = tested on: HL-60 cells; experiment: HL-60 differentiation (NBT reduction); format: cell-based, human; details: day 6
# Description: as §1
# [3] = tested on: NB4 cells; experiment: NB4 differentiation (NBT reduction, CD11b); format: cell-based, human; details: GM-CSF alone
# Description: as §1
# [4] = tested on: NB4 cells; experiment: NB4 cell cycle analysis and Annexin V/propidium iodide assay; format: cell-based, human; details: 3 days; sodium stibogluconate 250 μg/ml, ATRA 1 μM
# Description: […] Briefly, the cells were fixed in cold ethanol and incubated for 30 minutes at 4° C. in the dark with a solution of […], 1 mg/ml RNase and 0.1% NP-40. Analysis was performed immediately after staining using the CELLFIT program (Becton Dickinson, Mountain View, Calif.).
# ] Annexin V staining of exposed membrane phospholipid phosphatidylserine (PS) was done using the Annexin V assay kit (Pharmingen, San Diego, Calif.). Briefly, NB4 cells were cultured in the 10% FCS RPMI 1640 medium in the absence or presence of sodium stibogluconate (250 µg/ml) or ATRA (1 µM) for 3 days. Cells were then washed in PBS twice and stained in binding buffer (10 mM Hepes, pH 7.4; 140 mM NaCl; 2.5 mM CaCl2) containing Annexin V-FITC and propidium iodide for 15 min. The reaction was stopped by adding 10 volumes of binding buffer and analyzed by FACS (Becton Dickinson Facsvantage).
# [5] = tested on: acute promyelocytic leukemia; details: in vivo; cited from earlier work
# [6] = target: T1, PTP1B (Homo sapiens, UniProt P18031); experiment: In vitro PTPase assay, GST/PTP1B; format: biochemical; details: 1-1,000 μg/ml
# T1 construct: purchased Upstate Biotechnology Inc. (Lake Placid, N.Y.)
# Description: In vitro PTPase activities were measured using the commercial protein tyrosine phosphatase assay kit (Upstate Biotechnology, Inc. (“UBI”)) following established procedure known to one of skill in the art. This assay measures the in vitro dephosphorylation of a synthetic phosphotyrosine peptide of the sequence Arg-Arg-Leu-Ile-Glu-Asp-Ala-Gle-T- -yr-Ala-Ala-Arg-Gly, wherein the tyrosine is phosphorylated (SEQ ID NO: 3). Briefly, 0.01 µg of GST/PTPase fusion proteins was incubated in 50 µl of Tris buffer (10 mM Tris, pH 7.4) containing different concentrations of inhibitors or chemicals (0-1,000 µg/ml) at 22° C. for 10 minutes, followed by addition of 0.2 mM of the phosphotyrosine peptide and incubation at 22° C. for 18 hours. 100 µl of Malachite Green solution was added and incubated for 5 minutes, and the absorbance at 660 nm was measured after 5 minutes.
# In vitro PTPase assays were used to determine the effects of levamisole (Sigma), pentamidine (American Pharmaceutical Partners, Inc.), and ketoconazole (Sigma) on recombinant PTPases, following established procedures (Pathak et al., J. Imumol. 167, 3391 (2001); Pathak et al., Leukemia 16, 2285 (2002), Yi et al., J. Immunol. 169, 5978 (2002)) using a synthetic phosphotyrosine peptide or DiFMUP as the substrate as detailed above in section I.A.2.
# [7] = target: T2, SHP-1 (Mus musculus, UniProt P29351); experiment: In vitro PTPase assay, GST/SHP-1; format: biochemical; details: 1-1,000 μg/ml
# T2 construct: made in house
# Description: In vitro PTPase activities were measured using the commercial protein tyrosine phosphatase assay kit (Upstate Biotechnology, Inc. (“UBI”)) following established procedure known to one of skill in the art. […] Briefly, 0.01 µg of GST/PTPase fusion proteins was incubated in 50 µl of Tris buffer (10 mM Tris, pH 7.4) containing different concentrations of inhibitors or chemicals (0-1,000 µg/ml) at 22° […] 100 µl of Malachite Green solution was added and incubated for 5 minutes, and the absorbance at 660 nm was measured after 5 minutes.
# To assess the reversibility of inhibition of SHP-1 by PTPase inhibitors, GST/SHP-1 fusion protein bound on glutathione beads were pre-incubated in cold Tris buffer or Tris buffer containing the PTPase inhibitors at 4° C. for 30 minutes. The beads were then either subjected to in vitro PTPase assays or washed 3 times in Tris buffer then subjected to in vitro PTPase assays.
# Briefly, individual PTPases (0.1 µg/reaction) in 50 µL of PTPase buffer (50 mM Tris, pH 7.4) were incubated at 22° C. for 10 minutes or as indicated in the absence or presence of inhibitory compounds. Substrates (0.2 mM phosphotyrosine peptide) were then added and allowed to react at 22° C. for 18 hrs. PTPase activity of individual reactions was measured by adding 100 µL of malachite green solution (UBI) and then quantifying the amounts of free phosphate cleaved by the PTPase from the peptide substrate by spectrometry (OD660 nm). […] Relative PTPase activities were calculated based on the formula: (PTPase activity in the presence of an inhibitory compound/PTPase activity in the absence of the compound)× 100%. To assess the reversibility of PTPase inhibition, GST fusion proteins of the PTPases bound on glutathione beads (Pharmacia) were pre-incubated with cold Tris buffer (50 mM Tris, pH 7.0) or Tris buffer containing the inhibitor at 4° C. for 30 minutes. The beads were then washed three times in cold Tris buffer or not washed prior to subjecting to in vitro PTPase assays.
# [8] = tested on: Jak2/Stat5 and cellular protein tyrosine phosphorylation in Baf3 cells; experiment: Cellular protein phosphorylation and Western blotting in Baf3 cells; format: cell-based, murine; details: Baf3 cells
# Description: For induction of cellular protein phosphorylation by sodium stibogluconate or pervanadate, Baf3 cells were incubated in 0.1% FCS-RPMI 1640 medium at 37° C. for 16 hours. The cells were then washed twice in RPMI 1640 medium and incubated with sodium stibogluconate or pervanandate (0.1 mM) for various times prior to termination by lysing cells in cold lysis buffer (50 mM Tris, pH 7.4; 150 mM NaCl; 0.2 mM Na3VO4; 20 mm NaF; 1% Nonidet P-40; 2 mM PMSF; 20 µg/ml of Aprotinin and 1 mM of sodium molybdic acid). To determine the effect of sodium stibogluconate or potassium antimonyl tartrate on IL-3-induced Jak/Stat phosphorylation, Baf3 cells were deprived of the growth factor for 16 hours in 0.1% FCS RPMI 1640 medium and then incubated with or without sodium stibogluconate or potassium antimonyl tartrate for 10 minutes. IL-3 was next added to the cell suspension and incubated for various times. The Cells were then harvested and lysed in cold lysis buffer at 4° C. for 45 minutes. Total cell lysates (TCL) were separated in SDS-PAGE gels, blotted onto nitrocellulose membrane (Schleicher & Schuell), probed with specific antibodies and detected using an enhanced chemiluminescence kit (ECL, Amersham, Arlington Heights, Ill.).
# [9] = tested on: Baf3 cells; experiment: Baf3 cell proliferation assay; format: cell-based, murine
# Description: The murine hematopoietic cell line Baf3 was maintained in RPMI 1640 medium supplemented with 10% fetal calf serum (FCS) and murine IL-3 (20 units/ml) as described previously in Damen et al., J. Biol. Chem. 270, 23402 (1995). Human myeloid cell line TF-1 was maintained in RPMI 1640 supplemented with 10% FCS and 40 ng/ml of recombinant human GM-CSF as described previously in Thomassen et al., Clin. Immunol. 95, 85 (2000). For cell proliferation assays, cells were washed in 10% FCS medium twice, resuspended in 10% FCS medium, incubated at 37° C. for 16 hours, and then cultured at 37° C. in 10% FCS medium containing various amounts of cytokines, sodium stibogluconate, or potassium antimonyl tartrate for 3-6 days as indicated. The cell numbers in proliferation assays were determined by an MTT assay or by microscopic cell counting as indicated.
# [10] = sodium stibogluconate 400 μg/ml, GM-CSF 25 ng/ml
# T2 sequence (P29351 whole entry): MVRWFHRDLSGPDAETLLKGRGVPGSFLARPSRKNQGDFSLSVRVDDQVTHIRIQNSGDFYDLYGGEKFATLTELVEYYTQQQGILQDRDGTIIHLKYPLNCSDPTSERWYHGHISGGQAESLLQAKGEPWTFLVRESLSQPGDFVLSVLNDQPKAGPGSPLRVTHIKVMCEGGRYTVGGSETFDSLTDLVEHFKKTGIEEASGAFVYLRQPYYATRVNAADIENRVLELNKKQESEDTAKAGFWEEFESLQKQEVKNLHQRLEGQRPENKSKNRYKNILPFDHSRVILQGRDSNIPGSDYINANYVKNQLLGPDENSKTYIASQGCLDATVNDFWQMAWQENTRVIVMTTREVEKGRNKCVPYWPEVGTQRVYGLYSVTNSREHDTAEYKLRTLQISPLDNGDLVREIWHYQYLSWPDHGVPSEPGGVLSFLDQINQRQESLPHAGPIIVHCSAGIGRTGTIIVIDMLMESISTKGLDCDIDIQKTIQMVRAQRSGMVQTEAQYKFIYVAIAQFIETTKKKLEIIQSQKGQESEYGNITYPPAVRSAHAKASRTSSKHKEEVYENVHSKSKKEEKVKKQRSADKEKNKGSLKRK
# T1 sequence (P18031 whole entry, species assumed): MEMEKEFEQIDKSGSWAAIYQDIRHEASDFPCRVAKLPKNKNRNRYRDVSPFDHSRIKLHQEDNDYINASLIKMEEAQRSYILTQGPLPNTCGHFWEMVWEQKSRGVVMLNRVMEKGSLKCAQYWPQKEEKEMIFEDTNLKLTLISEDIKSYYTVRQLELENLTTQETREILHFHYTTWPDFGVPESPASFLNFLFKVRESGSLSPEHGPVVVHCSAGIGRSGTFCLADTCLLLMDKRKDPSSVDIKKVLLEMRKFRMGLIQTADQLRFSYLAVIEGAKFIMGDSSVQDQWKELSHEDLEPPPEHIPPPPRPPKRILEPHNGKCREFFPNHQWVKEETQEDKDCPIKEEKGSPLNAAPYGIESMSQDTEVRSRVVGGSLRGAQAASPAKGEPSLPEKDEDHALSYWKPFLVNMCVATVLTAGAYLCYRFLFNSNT
compound,measurement,setting,value
GM-CSF: recombinant human GM-CSF,maximal increase of NBT-positive cells,[1]; GM-CSF alone,8-10%
same,maximal increase of NBT-positive cells,[2]; GM-CSF alone,8-10%
same,effect on NB-4 cell differentiation,[3],no detectable effect
"CC1=C(/C=C/C(C)=C/C=C/C(C)=C/C(=O)O)C(C)(C)CCC1 [ATRA, All-trans-retinoic acid]",U937 differentiation (NBT-positive cells),[1]; [10],72% and 73%
same,HL-60 differentiation (NBT-positive cells),[2]; [10],90%
same,cell cycle distribution of NB4 cells,[4],arrested at G1 phase
same,long term APL-free survival,[5],exceeding 75%
O.O.O.O=C([O-])[C@H]([O-])[C@@H]([O-])C(=O)[O-].O=C([O-])[C@H]([O-])[C@@H]([O-])C(=O)[O-].[K+].[K+].[Sb+3].[Sb+3] [potassium antimonyl tartrate],inhibition of PTP1B,[6],no detectable inhibition
same,inhibition of SHP-1,[7],no detectable inhibition
same,IL-3-induced Stat5 phosphorylation,[8],failed to enhance
same,toxicity against Baf3 cells,[9],marked toxicity
same,IL-3-induced proliferation of Baf3 cells,"[9]; IL-3 10 units/ml, three days",failed to enhance
